Experimental data as given in patent publication US20240408077A1, “ATM KINASE INHIBITORS FOR USE IN THE TREATMENT OF NEUROLOGICAL CONDITIONS” (The University of Birmingham, priority 2021, published 2024).
Read-outs that look alike come from different tables or passages of the source.

Assays:
[1] = target: T1, phosphorylated ATM (pATM) (Rattus norvegicus, UniProt D4ACL8); test: pATM levels in DRGN cultures, western blot and densitometry; assay type: cell-based
T1 construct: Total protein was extracted from DRGN cultures and fresh DRG tissues; endogenous in cells; host or cells: primary adult rat dorsal root ganglion neurons
Method: Primary adult rat DRGN cultures were prepared as described by us previously (11). DRGN were dissociated using collagenase and cultured in supplemented Neurobasal-A (#10888022; NBA) containing B27 supplement (#17504044), L-glutamine (#25030081) and gentamicin (#15710064) (all from Invitrogen, Paisley, UK) at a plating density of 500/well in 8-well chamber slides (#C6932; Beckton Dickinson, Oxford, UK) pre-coated with 100 μg/ml poly-D-lysine (#P6407; Sigma, Poole, UK). […] Sigma) at 30 μM (11). […] Positive controls included pre-optimized fibroblast growth factor-2 (FGF-2) (#100-18C, Peprotech, London, UK; 10 ng/ml (11)). Cells were cultured for 4 days in a humidified chamber at 37° C. and 5% CO2 before being subjected to immunocytochemistry, as described below. Treatments were added in triplicate and repeated on 3 independent occasions (i.e. total n=9 wells/treatment) by an investigator masked to the treatment conditions. […] Tocris, Oxford, UK) were dissolved in DMSO (Sigma, Poole, UK) at stock concentrations of 10 mM for in vitro use. […] After a protein assay using the Bradford Assay Kit (#5000001; […] Proteins were then transferred onto PVDF membranes (#1EVH00005, Merck, Gillingham, UK), blocked in non-fat milk and incubated with rabbit anti-pATM ([…]) antibody (#13050, 1:200 dilution, Cell Signalling Technology, London, UK) overnight at 4° C. Membranes were then washed in Tris buffered saline (TBS) and incubated with appropriate mouse/rabbit HRP-labelled secondary antibody (#GENA934; 1:1000 dilution, GE Healthcare, Buckinghamshire, UK) and bands detected using an enhanced chemiluminescence kit (#RPN2108, GE Healthcare). Rabbit anti-β-actin antibody (#ZRB1312, 1:1000; Sigma) was used as a loading control for western blots. For densitometry, western blots were scanned into Adobe Photoshop (Adobe Systems, San Jose, CA, USA) keeping all scanning parameters the same between each blot and densitometrically analysed using the built-in gel plotting macros in ImageJ ([…].gov), as previously described (7).

DC axons = assay type: in vivo, mice; details: oral 20 mg/kg once daily; for DC axon regeneration through the lesion site: 6 weeks after injury
ATM [2] = target: T2, ATM (Homo sapiens, UniProt Q13315); details: cited from earlier work
ATM [3] = target: T2, ATM; details: read-out: cell IC50; cited from earlier work
[4] = tested on: kinases within the same family; details: cited from earlier work
primary adult rat DRGN = test: DRGN survival and neurite outgrowth in the presence of CNS myelin extracts; assay type: cell-based; details: with CME
Method: Primary adult rat DRGN cultures were prepared as described by us previously (11). DRGN were dissociated using collagenase and cultured in supplemented Neurobasal-A (#10888022; NBA) containing B27 supplement (#17504044), L-glutamine (#25030081) and gentamicin (#15710064) (all from Invitrogen, Paisley, UK) at a plating density of 500/well in 8-well chamber slides (#C6932; Beckton Dickinson, Oxford, UK) pre-coated with 100 μg/ml poly-D-lysine (#P6407; Sigma, Poole, UK). Glial cell proliferation was inhibited in cultures using 5-fluoro-2-deoxyuridine (5-FDU; #343333; Sigma) at 30 μM (11). […] Positive controls included pre-optimized fibroblast growth factor-2 (FGF-2) (#100-18C, Peprotech, London, UK; 10 ng/ml (11)). Cells were cultured for 4 days in a humidified chamber at 37° C. and 5% CO2 before being subjected to immunocytochemistry, as described below. Treatments were added in triplicate and repeated on 3 independent occasions (i.e. total n=9 wells/treatment) by an investigator masked to the treatment conditions.
DRGN were fixed in 8-well chamber slides in situ using 4% paraformaldehyde before being subjected to immunocytochemistry with rabbit anti-βIII tubulin antibodies (#T3952; 1:200 dilution; Sigma) to detect DRGN soma and neurites, as described previously (11). Alexa-488 goat […] IgG (#A32723; 1:400 dilution; ThermoFisher, Leicester, UK) secondary antibodies were used to visualize DRGN soma and neurites using an Axioplan 2 epifluorescent microscope equipped with an AxioCam HRc and running Axiovision Software (all from Carl Zeiss, Hertfordshire, UK).
With the investigator masked to the treatment conditions, the proportion of βIII-tubulin^+ DRGN, the number of DRGN with neurites and the longest DRGN neurite length were all calculated using Axiovision Software, as described by us previously (11).

DC injury model of SCI [5] = test: horizontal ladder crossing test (locomotor function) after DC injury; assay type: in vivo, mice; details: oral; for locomotor function, ladder crossing: over 6 weeks after DC injury
Method: (§1) Mice were subcutaneously injected with Buprenorphine and anaesthetized using 5% isoflurane and 1.8 l/min O2. After a partial laminectomy at T8, DC were crushed bilaterally using calibrated watchmaker's forceps as described by us previously (12). Animals were dosed immediately after injury and allowed to recover in their home cage. Drugs were given every 24 hours for the duration of each experiment. Tape sensing and removal and horizontal ladder crossing tests were used to detect sensory and locomotor changes after DC injury and treatment as described by us previously (7). Briefly, tape sensing and removal was tested by attaching a 15/15 mm piece of sticky tape (Kip Hochkrepp, Bocholt, Germany) onto the plantar surface of each the left paw of each mouse and recording the time taken to detect and remove the tape. For the ladder crossing test, each mouse was trained prior to DC injury to master the traversing the ladder (0.9 m long and 15.5 cm wide with randomly adjusted rungs). Animals were assessed crossing the ladder and the total number of steps and the number of left and right hind paw slips were recorded and presented as an error ratio. All of these tests were performed at 2 days after injury, then at 1 week followed by weekly tests for 6 weeks. The experimenter was masked to the treatment conditions and animals were assessed in the same order and time of day with each test performed for 3 individual trials on each occasion.

DC injury model of SCI [6] = test: electrophysiology, compound action potentials across the lesion site after DC injury; assay type: in vivo, mice; details: oral, 6 weeks after DC injury
Method: Mice were subcutaneously injected with Buprenorphine and anaesthetized using 5% isoflurane and 1.8 l/min O2. After a partial laminectomy at T8, DC were crushed bilaterally using calibrated watchmaker's forceps as described by us previously (12). Animals were dosed immediately after injury and allowed to recover in their home cage. Drugs were given every 24 hours for the duration of each experiment. […] Spike 2 software (Cambridge Electronic Design, Cambridge, UK) was used to process and analyse the traces and determine the CAP amplitude and CAP area for each condition.

brain gliomas = details: in combination with daily ionizing radiation therapy; cited from earlier work
DC injury model of SCI [7] = test: tape sensing and removal test (sensory function) after DC injury; assay type: in vivo, mice; details: oral; for tape sensing and removal time: over 6 weeks after DC injury, versus controls
Method: as §1

[8] = after oral administration; cited from earlier work
pATM (pSer 1981) = target: T3, pATM (pSer 1981) (Mus musculus, UniProt Q62388); test: pATM levels in DRG after DC crush injury, western blot and densitometry; assay type: in vivo, mice; details: for pATM (pSer 1981) levels: oral 20 mg/kg once daily, DRG at 4 weeks after DC injury; for pATM inhibition in DRGN from SCI treated animals: oral, doses up to 100 mg/kg
T3 construct: L4/L5 DRG pairs were dissected out and snap frozen in liquid nitrogen; from tissue; host or cells: mouse L4/L5 dorsal root ganglia, 4 weeks after DC crush injury
Method: Mice were subcutaneously injected with Buprenorphine and anaesthetized using 5% isoflurane and 1.8 l/min O2. After a partial laminectomy at T8, DC were crushed bilaterally using calibrated watchmaker's forceps as described by us previously (12). Animals were dosed immediately after injury and allowed to recover in their home cage. Drugs were given every 24 hours for the duration of each experiment.
For western blot, animals were killed at 4 weeks and tissues harvested as described below. For immunohistochemistry and behavioural analysis, animals were treated up to 6 weeks after DC injury.
Methods for tissue harvesting have been described by us previously (7, 12). Briefly, for western blot analysis: animals were killed by rising concentrations of CO2 and L4/L5 DRG pairs were dissected out and snap frozen in liquid nitrogen and stored at −80° C. until required (7). For immunohistochemistry: animals were killed in rising concentrations of CO2 and intracardially perfused with 4% paraformaldehyde (7, 12). The SCI site+5 mm either side of the lesion center was dissected out and postfixed in 4% formaldehyde for 2 hr, followed by cryoprotection in a graded series of sucrose and embedded in optimal temperature cutting medium (#12678646, ThermoFisher). Sections were cut at 15 μm-thick stored at −80° C. until required.
Total protein was extracted from DRGN cultures and fresh DRG tissues as described by us previously (7, 12). Briefly, cultures/DRG tissues were washed in PBS and total protein extracted in ice-cold lysis buffer containing 20 mM HEPES, 1 mM EDTA, 150 mM NaCl, 1% NP-40 and 1 mM DTT and supplemented with protease (#P8340) and phosphatase inhibitor cocktails (#P5726) (all from Sigma). After a protein assay using the Bradford Assay Kit (#5000001; BioRad, Watford, UK), 15 μg of total protein was separated on 12% Tris-glycine SDS-PAGE gels. Proteins were then transferred onto PVDF membranes (#1EVH00005, Merck, Gillingham, UK), blocked in non-fat milk and incubated with rabbit anti-pATM (ser1981) antibody (#13050, 1:200 dilution, Cell Signalling Technology, London, UK) overnight at 4° C. Membranes were then washed in Tris buffered saline (TBS) and incubated with appropriate mouse/rabbit HRP-labelled secondary antibody (#GENA934; 1:1000 dilution, GE Healthcare, Buckinghamshire, UK) and bands detected using an enhanced chemiluminescence kit (#RPN2108, GE Healthcare). Rabbit anti-β-actin antibody (#ZRB1312, 1:1000; Sigma) was used as a loading control for western blots.
For densitometry, western blots were scanned into Adobe Photoshop (Adobe Systems, San Jose, CA, USA) keeping all scanning parameters the same between each blot and densitometrically analysed using the built-in gel plotting macros in ImageJ (ww.nihimage.nih.gov), as previously described (7).

γH2Ax+ foci = details: twice weekly injections directly into the CSF, cited from earlier work
[9] = 5 nM, compared to vehicle-treated DRGN

T3 sequence (Q62388 whole entry): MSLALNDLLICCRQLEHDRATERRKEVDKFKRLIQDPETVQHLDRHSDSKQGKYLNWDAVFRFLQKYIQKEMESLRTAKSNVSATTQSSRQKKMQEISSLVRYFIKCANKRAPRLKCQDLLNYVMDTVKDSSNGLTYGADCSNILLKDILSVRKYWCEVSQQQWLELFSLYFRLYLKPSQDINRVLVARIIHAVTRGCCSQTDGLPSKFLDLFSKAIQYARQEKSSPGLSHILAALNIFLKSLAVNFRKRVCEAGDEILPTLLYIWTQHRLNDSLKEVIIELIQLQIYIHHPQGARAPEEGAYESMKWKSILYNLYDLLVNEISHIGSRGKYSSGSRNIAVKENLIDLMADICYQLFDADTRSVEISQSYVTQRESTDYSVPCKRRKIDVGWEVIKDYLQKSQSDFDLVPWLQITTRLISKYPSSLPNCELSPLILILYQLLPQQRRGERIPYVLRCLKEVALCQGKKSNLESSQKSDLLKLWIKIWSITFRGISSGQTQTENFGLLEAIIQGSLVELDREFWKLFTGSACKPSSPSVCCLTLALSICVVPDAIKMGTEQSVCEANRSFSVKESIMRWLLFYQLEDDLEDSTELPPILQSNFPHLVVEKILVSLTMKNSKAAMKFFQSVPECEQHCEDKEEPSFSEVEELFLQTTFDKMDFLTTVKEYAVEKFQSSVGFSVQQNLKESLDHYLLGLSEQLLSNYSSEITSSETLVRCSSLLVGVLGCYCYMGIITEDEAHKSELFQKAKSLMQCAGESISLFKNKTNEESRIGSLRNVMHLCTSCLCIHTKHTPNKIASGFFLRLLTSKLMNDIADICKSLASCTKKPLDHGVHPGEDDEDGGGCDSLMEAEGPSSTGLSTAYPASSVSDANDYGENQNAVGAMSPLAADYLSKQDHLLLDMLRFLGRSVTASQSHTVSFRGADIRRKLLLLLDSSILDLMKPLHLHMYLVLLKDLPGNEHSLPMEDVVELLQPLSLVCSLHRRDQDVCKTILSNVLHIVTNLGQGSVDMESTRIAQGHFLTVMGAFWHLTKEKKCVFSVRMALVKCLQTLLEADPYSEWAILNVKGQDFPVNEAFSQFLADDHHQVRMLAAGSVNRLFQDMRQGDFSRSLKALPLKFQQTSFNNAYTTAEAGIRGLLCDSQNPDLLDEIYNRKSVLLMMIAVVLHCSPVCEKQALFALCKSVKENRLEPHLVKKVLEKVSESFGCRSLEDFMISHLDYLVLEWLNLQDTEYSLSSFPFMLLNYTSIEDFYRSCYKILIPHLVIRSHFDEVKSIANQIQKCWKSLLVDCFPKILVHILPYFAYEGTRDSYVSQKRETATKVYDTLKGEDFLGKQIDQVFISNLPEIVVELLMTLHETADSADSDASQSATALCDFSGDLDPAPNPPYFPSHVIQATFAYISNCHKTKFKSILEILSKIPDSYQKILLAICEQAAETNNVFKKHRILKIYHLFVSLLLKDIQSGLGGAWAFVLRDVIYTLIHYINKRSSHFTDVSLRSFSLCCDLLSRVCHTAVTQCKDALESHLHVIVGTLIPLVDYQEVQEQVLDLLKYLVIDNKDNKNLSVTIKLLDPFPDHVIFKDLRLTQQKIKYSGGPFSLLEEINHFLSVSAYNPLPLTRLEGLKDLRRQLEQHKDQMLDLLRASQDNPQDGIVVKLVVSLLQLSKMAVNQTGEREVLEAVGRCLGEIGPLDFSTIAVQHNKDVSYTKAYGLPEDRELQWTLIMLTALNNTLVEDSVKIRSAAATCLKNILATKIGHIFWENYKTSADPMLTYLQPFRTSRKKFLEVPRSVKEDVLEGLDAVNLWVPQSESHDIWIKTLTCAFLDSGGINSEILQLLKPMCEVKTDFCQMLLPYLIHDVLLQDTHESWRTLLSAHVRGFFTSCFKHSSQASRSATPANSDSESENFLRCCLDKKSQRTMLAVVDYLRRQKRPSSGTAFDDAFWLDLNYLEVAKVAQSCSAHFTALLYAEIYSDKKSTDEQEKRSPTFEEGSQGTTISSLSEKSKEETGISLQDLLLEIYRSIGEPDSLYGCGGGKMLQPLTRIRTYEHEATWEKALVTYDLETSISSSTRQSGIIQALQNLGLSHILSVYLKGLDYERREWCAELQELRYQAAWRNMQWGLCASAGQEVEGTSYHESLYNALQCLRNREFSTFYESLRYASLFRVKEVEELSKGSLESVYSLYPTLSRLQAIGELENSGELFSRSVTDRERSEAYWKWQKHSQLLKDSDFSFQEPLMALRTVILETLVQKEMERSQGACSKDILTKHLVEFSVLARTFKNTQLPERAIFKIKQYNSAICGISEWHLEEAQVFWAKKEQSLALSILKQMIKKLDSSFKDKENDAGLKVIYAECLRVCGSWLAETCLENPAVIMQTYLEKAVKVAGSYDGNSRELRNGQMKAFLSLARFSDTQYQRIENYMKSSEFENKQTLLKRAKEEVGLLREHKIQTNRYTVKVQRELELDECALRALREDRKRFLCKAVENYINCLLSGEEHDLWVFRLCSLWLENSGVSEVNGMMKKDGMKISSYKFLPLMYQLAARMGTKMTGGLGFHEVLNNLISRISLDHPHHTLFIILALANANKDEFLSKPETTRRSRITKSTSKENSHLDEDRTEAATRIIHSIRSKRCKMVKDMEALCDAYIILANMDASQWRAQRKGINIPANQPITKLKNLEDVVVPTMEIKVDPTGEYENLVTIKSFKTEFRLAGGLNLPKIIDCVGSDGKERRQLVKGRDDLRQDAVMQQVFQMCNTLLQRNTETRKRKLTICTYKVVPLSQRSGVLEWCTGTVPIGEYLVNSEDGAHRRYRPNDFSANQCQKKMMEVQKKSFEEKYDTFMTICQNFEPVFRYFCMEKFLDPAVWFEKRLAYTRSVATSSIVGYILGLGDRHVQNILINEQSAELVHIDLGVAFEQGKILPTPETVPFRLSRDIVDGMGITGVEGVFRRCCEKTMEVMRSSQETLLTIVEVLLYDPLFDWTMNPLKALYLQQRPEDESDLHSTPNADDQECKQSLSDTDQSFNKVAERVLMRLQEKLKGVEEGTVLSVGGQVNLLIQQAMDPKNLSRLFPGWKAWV

Question: Which results are given for `CC(C)n1c(=O)n(C)c2cnc3ccc(-c4ccc(OCCCN5CCCCC5)nc4F)cc3c21` [AZD1390, 8-[2-Fluoro-6-[3-(I-piperidyl)propoxy]-3-pyridyl]-1-isopropyl-3-methyl-imidazo[4,5-c]quinolin-2-one]?
Answer: reduction of pATM levels ([1]; 5 nM, compared to vehicle-treated (0 nM) cultures): 70%; lowest most effective dose for reduction of pATM levels ([1]; concentrations 1-10 nM tested): 5 nM; DC axon regeneration through the lesion site (DC axons): promoted DC axon regeneration through the lesion site and into the rostral cord; axons regenerating beyond the lesion site (DC axons; up to 1 mm beyond the lesion site, compared to vehicle-treated mice): up to 12%; IC50 (ATM [2]): 0.5 to 3 nM; IC50 (ATM [3]): 0.78 nM; selectivity over kinases within the same family [4]: > 10,000 fold; increase of DRGN survival (primary adult rat DRGN; [9]): 60%; increase of longest neurite length (primary adult rat DRGN; [9]): 81%; increase of percentage of DRGN with neurites (primary adult rat DRGN; [9]): 88%; time to recover to sham-uninjured control levels, ladder crossing (DC injury model of SCI [5]): ≤ 4 weeks; locomotor function, ladder crossing (DC injury model of SCI [5]): marked improvement; CAP amplitudes (DC injury model of SCI [6]): significantly improved; CAP areas (DC injury model of SCI [6]): significantly improved; CAP trace (DC injury model of SCI [6]): return of a significant CAP trace; tumor response and survival (brain gliomas): induced tumor regression and prolonged survival; time for sensory function to return to baseline of sham-uninjured animals (DC injury model of SCI [7]; after injury): ≤ 4 weeks; tape sensing and removal time (DC injury model of SCI [7]): significantly shorter time than controls; time bioavailable in the brain [8]: at least 8 hours; pATM (pSer 1981) levels (pATM (pSer 1981)): significant suppression

Question: With `C[C@@H]1CN(CC(=O)Nc2ccc3c(c2)Cc2cccc(-c4cc(=O)cc(N5CCOCC5)o4)c2S3)C[C@H](C)O1` [KU-60019] as the compound, how does the “ATM activation in vitro” value [1] read?
Answer: The value was “able to suppress ATM activation in vitro”.

Question: What about the “DC axon regeneration through the lesion site” value (DC axons) of the same compound?
Answer: The value was “not oral KU-60019 promoted DC axon regeneration”.

Question: What about the “γH2Ax+ foci” value (γH2Ax+ foci; after SCI) of the same compound?
Answer: Its value is “reduced”.

Question: What about the “functional recovery after SCI” value (γH2Ax+ foci) of the same compound?
Answer: Its value is “promoted significant functional recovery”.

Question: And the “locomotor function, ladder crossing” value (DC injury model of SCI [5])?
Answer: Its value is “a significant deficit remained”.

Question: And the “tape sensing and removal time” value (DC injury model of SCI [7])?
Answer: Its value is “no effect”.

Question: And the “suppression of pATM levels” value (pATM (pSer 1981); intrathecal delivery after injury)?
Answer: Its value is 81%.

Question: What about the “pATM (pSer 1981) levels” value (pATM (pSer 1981)) of the same compound?
Answer: The value was “no effect”.

Question: And the “pATM inhibition in DRGN from SCI treated animals” value (pATM (pSer 1981))?
Answer: Its value is “no pATM inhibition”.

Question: What about the “pATM inhibition in DRGN from SCI treated animals” value (pATM (pSer 1981); listed as KU6000-19) of the same compound?
Answer: The value was “no effect”.

Question: For “FGF-2: fibroblast growth factor-2, positive control (Peprotech), 10 ng/ml”, which “DRGN survival and neurite outgrowth in comparison with AZD1390” value (primary adult rat DRGN; FGF-2 10 ng/ml positive control, KU-60019 at concentrations of a recent study) is on record?
Answer: Its value is “inferior compared to AZD1390”.
